Columns and labels:
ACHN = experiment: Growth inhibition of human ACHN cells after 48 hrs by SRB assay; type: functional
[1] = Growth inhibition of human DU145 cells after 48 hrs by SRB assay; type: functional; conditions: DU-145, 48 h
[2] = Growth inhibition of human NCI-ADR-RES cells after 48 hrs by SRB assay; type: functional
[3] = Growth inhibition of human BT549 cells after 48 hrs by SRB assay; type: functional; conditions: BT-549, 48 h
NCI-H23 = experiment: Growth inhibition of human NCI-H23 cells after 48 hrs by SRB assay; type: functional; conditions: NCI-H23, 48 h
KM12 = experiment: Growth inhibition of human KM12 cells after 48 hrs by SRB assay; type: functional; conditions: KM12, 48 h
A498 = experiment: Growth inhibition of human A498 cells after 48 hrs by SRB assay; type: functional; conditions: A498, 48 h
[4] = Growth inhibition of human SW620 cells after 48 hrs by SRB assay; type: functional; conditions: SW-620, 48 h
SR = experiment: Growth inhibition of human SR cells after 48 hrs by SRB assay; type: functional
[5] = Growth inhibition of human HCT15 cells after 48 hrs by SRB assay; type: functional; conditions: HCT-15, 48 h
MDA-MB-435 = experiment: Growth inhibition of human MDA-MB-435 cells after 48 hrs by SRB assay; type: functional; conditions: MDA-MB-435, 48 h
SK-MEL-2 = experiment: Growth inhibition of human SK-MEL-2 cells after 48 hrs by SRB assay; type: functional; conditions: SK-MEL-2, 48 h
[6] = Growth inhibition of human SF268 cells after 48 hrs by SRB assay; type: functional; conditions: SF-268, 48 h
[7] = Growth inhibition of human Hs 578T cells after 48 hrs by SRB assay; type: functional
NCI-H522 = experiment: Growth inhibition of human NCI-H522 cells after 48 hrs by SRB assay; type: functional; conditions: NCI-H522, 48 h
[8] = Growth inhibition of human HL-60(TB) cells after 48 hrs by SRB assay; type: functional; conditions: HL-60, 48 h
A549 = experiment: Growth inhibition of human A549 cells after 48 hrs by SRB assay; type: functional; conditions: A549, 48 h
[9] = Growth inhibition of human UO31 cells after 48 hrs by SRB assay; type: functional; conditions: UO-31, 48 h
[10] = Growth inhibition of human PC3 cells after 48 hrs by SRB assay; type: functional; conditions: PC-3, 48 h
[11] = Growth inhibition of human Caki1 cells after 48 hrs by SRB assay; type: functional; conditions: CAKI-1, 48 h
[12] = Growth inhibition of human OVCAR8 cells after 48 hrs by SRB assay; type: functional; conditions: OVCAR-8, 48 h
Malme-3M = experiment: Growth inhibition of human MALME-3M cells after 48 hrs by SRB assay; type: functional
M14 = experiment: Growth inhibition of human M14 cells after 48 hrs by SRB assay; type: functional; conditions: M14, 48 h
HT-29 = experiment: Growth inhibition of human HT-29 cells after 48 hrs by SRB assay; type: functional; conditions: HT-29, 48 h
[13] = Growth inhibition of human RXF393 cells after 48 hrs by SRB assay; type: functional; conditions: RXF 393, 48 h
[14] = Growth inhibition of human SF539 cells after 48 hrs by SRB assay; type: functional; conditions: SF-539, 48 h
[15] = Growth inhibition of human IGROV1 cells after 48 hrs by SRB assay; type: functional; conditions: IGROV-1, 48 h
[16] = Inhibition of sheep brain tubulin polymerization by DAPI staining-based fluorimetric method; parameters: species or system Ovis aries
[17] = Growth inhibition of human OVCAR4 cells after 48 hrs by SRB assay; type: functional; conditions: OVCAR-4, 48 h

Row | SMILES | GI50 (ACHN) [nM] | GI50 [1] [nM] | GI50 [2] [nM] | GI50 [3] [nM] | GI50 (NCI-H23) [nM] | GI50 (KM12) [nM] | GI50 (A498) [nM] | GI50 [4] [nM] | GI50 (SR) [nM] | GI50 [5] [nM] | GI50 (MDA-MB-435) [nM] | GI50 (SK-MEL-2) [nM] | GI50 [6] [nM] | GI50 [7] [nM] | GI50 (NCI-H522) [nM] | GI50 [8] [nM] | GI50 (A549) [nM] | GI50 [9] [nM] | GI50 [11] [nM] | GI50 [12] [nM] | also measured
1 | COc1ccc(C(=O)N2c3ccccc3Sc3ccccc32)c(F)c1 | 831 | 1400 | 517 | 676 | 3420 | 489 | 330 | 458 | 380 | 419 | 177 | 531 | 10100 | 377 | 403 | 325 | 1190 | 3780 | 584 | 2200 | GI50 [10]: 407 nM; GI50 (Malme-3M): 16200 nM; GI50 (M14): 371 nM; GI50 (HT-29): 380 nM; GI50 [13]: 764 nM; GI50 [14]: 409 nM; GI50 [15]: 807 nM; IC50 [16]: 22500 nM; GI50 [17]: 2010 nM
2 | O=C(c1ccc2c(c1)Sc1ccccc1N2)c1c[nH]c2ccccc12 | 671 | 679 | 317 | 366 | 389 | 311 | 172 | 293 | 173 | 408 | 98 | 309 | 798 | 239 | 338 | 398 | 592 | 510 | 359 | 556 | GI50 [10]: 544 nM; GI50 (Malme-3M): 532 nM; GI50 (M14): 319 nM; GI50 (HT-29): 358 nM; GI50 [13]: 510 nM; GI50 [14]: 258 nM; GI50 [15]: 683 nM; IC50 [16]: 38900 nM; GI50 [17]: 4110 nM
3 | COc1ccc(C(=O)N2c3ccccc3Sc3ccccc32)cc1F | 1050 | 3610 | 200 | 439 | 340 | 203 | 219 | 282 | 162 | 287 | 36 | 352 | 799 | 193 | 114 | 305 | 344 | 725 | 465 | 420 | GI50 (Malme-3M): 365 nM; GI50 (M14): 232 nM; GI50 (HT-29): 283 nM; GI50 [13]: 211 nM; GI50 [14]: 218 nM; GI50 [15]: 566 nM; IC50 [16]: 11800 nM; GI50 [17]: 1450 nM
4 | COc1ccc(C(=O)N2c3ccccc3Sc3ccccc32)c(OC)c1 | 726 | 491 | 400 | 659 | 776 | 438 | 307 | 412 | 562 | 464 | 212 | 585 | 853 | 482 | 343 | 297 | 785 | 739 | 574 | 749 | GI50 [10]: 430 nM; GI50 (Malme-3M): 416 nM; GI50 (M14): 359 nM; GI50 (HT-29): 385 nM; GI50 [13]: 413 nM; GI50 [14]: 333 nM; GI50 [15]: 926 nM; GI50 [17]: 3170 nM
5 | COc1ccc(C(=O)N2c3ccccc3Sc3ccccc32)c(C(F)(F)F)c1 | 1330 | 433 | 370 | 892 | 578 | 413 | 282 | 425 | 312 | 405 | 176 | 677 | 3040 | 472 | 320 | 252 | 515 | 2620 | 692 | 592 | GI50 [10]: 426 nM; GI50 (Malme-3M): 25800 nM; GI50 (M14): 343 nM; GI50 (HT-29): 362 nM; GI50 [13]: 362 nM; GI50 [14]: 270 nM; GI50 [15]: 2200 nM; IC50 [16]: 11900 nM; GI50 [17]: 1980 nM
